Measured values as given in patent publication US12570671B2 (BRISTOL-MYERS SQUIBB COMPANY, priority 2020, dated 2026).

What was measured:
Helios = Helios (Homo sapiens, UniProt Q96SW2+Q9UKS7); experiment: Helios Cellular Degradation Assay (Helios readout); assay type: cell-based; parameters: endogenous in cells; host or cells: Jurkat; settings: Jurkat cells, 72 h incubation, Helios-PE antibody staining, flow cytometry; read-out: Helios Jurkat IC50
Method in brief: (§1)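 Jurkat cells (80,000/well, RPMI+10% FBS) were treated with compound for 72 h at 37° C. After fixation and permeabilization they were stained with fluorescent antibodies to Helios, Ikaros and Aiolos. Intracellular protein levels were quantified by flow cytometry.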

Ikaros = Ikaros (Homo sapiens, UniProt Q13422+Q96SW2); experiment: Helios Cellular Degradation Assay (Ikaros readout); assay type: cell-based; parameters: endogenous in cells; host or cells: Jurkat; settings: Jurkat cells, 72 h incubation, Ikaros-Alexa488 antibody staining, flow cytometry; read-out: Ikaros Jurkat IC50
Sequence of Ikaros (Q13422 whole entry): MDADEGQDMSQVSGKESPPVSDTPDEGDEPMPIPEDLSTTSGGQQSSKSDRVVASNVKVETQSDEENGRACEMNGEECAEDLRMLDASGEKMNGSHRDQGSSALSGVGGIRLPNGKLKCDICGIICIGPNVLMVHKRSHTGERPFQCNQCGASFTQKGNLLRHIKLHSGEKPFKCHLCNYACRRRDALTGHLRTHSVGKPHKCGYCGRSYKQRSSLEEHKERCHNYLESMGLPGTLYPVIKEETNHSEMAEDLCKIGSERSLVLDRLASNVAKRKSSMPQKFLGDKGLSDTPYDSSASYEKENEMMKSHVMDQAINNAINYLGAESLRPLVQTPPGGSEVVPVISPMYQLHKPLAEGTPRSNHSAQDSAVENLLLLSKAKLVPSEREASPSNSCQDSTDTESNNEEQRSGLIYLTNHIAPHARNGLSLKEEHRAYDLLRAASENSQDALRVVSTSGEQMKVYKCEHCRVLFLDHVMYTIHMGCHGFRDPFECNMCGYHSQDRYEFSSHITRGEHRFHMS
Sequence of Ikaros (Q96SW2 whole entry): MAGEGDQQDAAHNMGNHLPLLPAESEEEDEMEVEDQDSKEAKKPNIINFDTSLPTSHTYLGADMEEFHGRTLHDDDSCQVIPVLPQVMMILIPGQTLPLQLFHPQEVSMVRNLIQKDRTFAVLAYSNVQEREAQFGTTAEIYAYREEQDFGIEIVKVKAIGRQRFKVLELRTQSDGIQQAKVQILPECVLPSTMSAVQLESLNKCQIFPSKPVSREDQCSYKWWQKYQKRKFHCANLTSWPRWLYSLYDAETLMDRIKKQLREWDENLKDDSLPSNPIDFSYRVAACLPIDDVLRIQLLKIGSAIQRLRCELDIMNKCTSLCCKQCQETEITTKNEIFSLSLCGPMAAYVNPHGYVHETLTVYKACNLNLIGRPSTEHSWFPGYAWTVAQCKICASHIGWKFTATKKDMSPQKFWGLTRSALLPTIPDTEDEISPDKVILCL
Sequence of Ikaros (Q16531 whole entry partner): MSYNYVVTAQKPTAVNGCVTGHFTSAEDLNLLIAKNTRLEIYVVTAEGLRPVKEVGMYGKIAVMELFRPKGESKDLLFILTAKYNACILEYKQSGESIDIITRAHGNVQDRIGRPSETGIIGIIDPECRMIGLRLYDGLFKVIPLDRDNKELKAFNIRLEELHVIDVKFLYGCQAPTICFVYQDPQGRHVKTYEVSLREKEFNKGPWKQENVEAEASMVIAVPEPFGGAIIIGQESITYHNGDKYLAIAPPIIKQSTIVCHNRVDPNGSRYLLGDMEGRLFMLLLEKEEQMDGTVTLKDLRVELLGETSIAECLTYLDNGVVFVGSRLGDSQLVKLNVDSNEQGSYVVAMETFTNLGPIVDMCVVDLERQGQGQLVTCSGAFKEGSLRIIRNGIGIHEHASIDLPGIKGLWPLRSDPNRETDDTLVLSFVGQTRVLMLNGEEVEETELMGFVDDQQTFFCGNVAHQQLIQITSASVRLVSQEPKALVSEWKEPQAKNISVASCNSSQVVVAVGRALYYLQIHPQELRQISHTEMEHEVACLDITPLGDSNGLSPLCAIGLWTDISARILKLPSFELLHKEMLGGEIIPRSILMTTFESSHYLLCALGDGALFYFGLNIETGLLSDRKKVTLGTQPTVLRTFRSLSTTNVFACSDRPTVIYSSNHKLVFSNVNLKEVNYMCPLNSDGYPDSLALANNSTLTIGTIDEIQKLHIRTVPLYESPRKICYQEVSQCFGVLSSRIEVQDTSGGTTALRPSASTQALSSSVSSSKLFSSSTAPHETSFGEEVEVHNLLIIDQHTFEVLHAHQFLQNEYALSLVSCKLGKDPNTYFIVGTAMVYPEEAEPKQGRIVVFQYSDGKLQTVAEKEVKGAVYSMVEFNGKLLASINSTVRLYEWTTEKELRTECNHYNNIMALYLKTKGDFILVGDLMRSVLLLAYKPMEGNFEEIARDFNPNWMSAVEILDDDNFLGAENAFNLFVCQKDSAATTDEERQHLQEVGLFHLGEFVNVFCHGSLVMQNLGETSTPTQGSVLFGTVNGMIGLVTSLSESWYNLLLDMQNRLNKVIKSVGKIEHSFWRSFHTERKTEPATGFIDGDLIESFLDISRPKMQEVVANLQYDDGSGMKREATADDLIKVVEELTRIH
Method in brief: as §1

Sequence of Helios (Q9UKS7 whole entry): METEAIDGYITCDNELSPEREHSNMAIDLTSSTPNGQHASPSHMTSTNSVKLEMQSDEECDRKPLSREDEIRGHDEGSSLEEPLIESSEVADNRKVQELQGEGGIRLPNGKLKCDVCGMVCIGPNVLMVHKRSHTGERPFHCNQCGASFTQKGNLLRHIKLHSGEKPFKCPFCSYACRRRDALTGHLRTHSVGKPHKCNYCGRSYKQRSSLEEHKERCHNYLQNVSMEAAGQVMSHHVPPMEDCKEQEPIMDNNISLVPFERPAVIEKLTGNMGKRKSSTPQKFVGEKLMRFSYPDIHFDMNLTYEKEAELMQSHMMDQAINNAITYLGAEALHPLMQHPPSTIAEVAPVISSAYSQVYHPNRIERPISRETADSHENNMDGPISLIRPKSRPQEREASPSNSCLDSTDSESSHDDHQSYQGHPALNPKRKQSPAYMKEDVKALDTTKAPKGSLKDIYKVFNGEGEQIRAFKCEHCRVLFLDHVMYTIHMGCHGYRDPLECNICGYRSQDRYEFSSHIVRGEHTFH
Sequence of Helios (Q96SW2 whole entry): as the sequence (Q96SW2 whole entry) above
Sequence of Helios (Q16531 whole entry partner): as the sequence (Q16531 whole entry partner) above

| SMILES | DC50 (Helios) [nM] | DC50 (Ikaros) [nM] |
| --- | --- | --- |
| N#Cc1cc(C2CC2)c(N)nc1-c1ccc2c(c1)CN(C1CCC(=O)NC1=O)C2=O (centres unmarked) [Example 182, 6-amino-5-cyclopropyl-2-(2-(2,6-dioxopiperidin-3-yl)-1-oxoisoindolin-5-yl) nicotinonitrile] | 70 | ≥ 10000 |
| O=C1CCC(N2Cc3cc(-c4nc5ccccc5nc4Cl)ccc3C2=O)C(=O)N1 (centres unmarked) [Example 93, 3-(5-(3-chloroquinoxalin-2-yl)-1-oxoisoindolin-2-yl)piperidine-2,6-dione] | 17100 | ≥ 20000 |
| O=C1CCC(N2Cc3cc(-c4ccc5cc(O)ccc5n4)ccc3C2=O)C(=O)N1 (centres unmarked) [Example 40, 3-[5-(6-hydroxyquinolin-2-yl)-1-oxo-2,3-dihydro-1H-isoindol-2-yl]piperidine-2,6-dione] | 19 | > 20000 |
| O=C1CCC(N2Cc3cc(-c4nc5ccccc5nc4-c4ccccc4)ccc3C2=O)C(=O)N1 (centres unmarked) [Example 99, 3-(1-oxo-5-(3-phenylquinoxalin-2-yl)isoindolin-2-yl)piperidine-2,6-dione] | 340 | ≥ 20000 |
| O=C1CCC(N2Cc3cc(-c4cc5cc[nH]c5nn4)ccc3C2=O)C(=O)N1 (centres unmarked) [Example 6, 3-(1-oxo-5-{7H-pyrrolo[2,3-c]pyridazin-3-yl}-2,3-dihydro-1H-isoindol-2-yl)piperidine-2,6-dione] | 140 | > 20000 |
| Nc1cc2cccnc2c(-c2ccc3c(c2)CN(C2CCC(=O)NC2=O)C3=O)n1 (centres unmarked) [Example 53, 3-[5-(6-Amino-1,7-naphthyridin-8-yl)-1-oxo-2,3-dihydro-1H-isoindol-2-yl]piperidine-2,6-dione] | 85 | > 20000 |
| Cc1cc(-c2ccc3c(c2)CN(C2CCC(=O)NC2=O)C3=O)nc(N)c1C (centres unmarked) [Example 151, 3-(5-(6-amino-4,5-dimethylpyridin-2-yl)-1-oxoisoindolin-2-yl)piperidine-2,6-dione] | 10 | ≥ 10000 |
| O=C1CCC(N2Cc3cc(-c4cc5ccccc5cn4)ccc3C2=O)C(=O)N1 (centres unmarked) [Example 67, 3-[5-(isoquinolin-3-yl)-1-oxo-2,3-dihydro-1H-isoindol-2-yl]piperidine-2,6-dione] | 42 | 3000 |
| Nc1nc(-c2ccc3c(c2)CN(C2CCC(=O)NC2=O)C3=O)cc2ccccc12 (centres unmarked) [Example 4, 3-[5-(1-aminoisoquinolin-3-yl)-1-oxo-2,3-dihydro-1H-isoindol-2-yl]piperidine-2,6-dione] | 6 | > 20000 |
| O=C1CCC(N2Cc3cc(-c4ncccc4CO)ccc3C2=O)C(=O)N1 (centres unmarked) [Example 107, 3-(5-(3-(hydroxymethyl)pyridin-2-yl)-1-oxoisoindolin-2-yl)piperidine-2,6-dione] | 1130 | ≥ 10000 |
| O=C1CCC(N2Cc3cc(-c4nc(O)cc5c(Cl)cccc45)ccc3C2=O)C(=O)N1 (centres unmarked) [Example 145, 3-(5-(5-chloro-3-hydroxyisoquinolin-1-yl)-1-oxoisoindolin-2-yl)piperidine-2,6-dione] | 10 | ≥ 20000 |
| Nc1cncc(-c2ccc3c(c2)CN(C2CCC(=O)NC2=O)C3=O)n1 (centres unmarked) [Example 142, 3-(5-(6-aminopyrazin-2-yl)-1-oxoisoindolin-2-yl)piperidine-2,6-dione] | 1350 | ≥ 20000 |
| NC(=O)c1ccc(-c2ccc3c(c2)CN(C2CCC(=O)NC2=O)C3=O)nn1 (centres unmarked) [Example 78, 6-[2-(2,6-dioxopiperidin-3-yl)-1-oxo-2,3-dihydro-1H-isoindol-5-yl]pyridazine-3-carboxamide] | 2800 | > 20000 |
| N#Cc1ccc(-c2ccc3c(c2)CN(C2CCC(=O)NC2=O)C3=O)nn1 (centres unmarked) [Example 77, 6-[2-(2,6-Dioxopiperidin-3-yl)-1-oxo-2,3-dihydro-1H-isoindol-5-yl]pyridazine-3-carbonitrile] | > 20000 | > 20000 |
| CNc1nc(-c2ccc3c(c2)CN(C2CCC(=O)NC2=O)C3=O)cc2ncccc12 (centres unmarked) [Example 51, 3-{5-[5-(Methylamino)-1,6-naphthyridin-7-yl]-1-oxo-2,3-dihydro-1H-isoindol-2-yl}piperidine-2,6-dione] | 26 | > 20000 |
| COc1ccc2c(-c3ccc4c(c3)CN(C3CCC(=O)NC3=O)C4=O)nc(OC)cc2c1 (centres unmarked) [Example 58, 3-[5-(3,6-dimethoxyisoquinolin-1-yl)-1-oxo-2,3-dihydro-1H-isoindol-2-yl]piperidine-2,6-dione] | 1 | 9 |
| O=C1CCC(N2Cc3cc(-c4ccc5cc(Cl)ccc5n4)ccc3C2=O)C(=O)N1 (centres unmarked) [Example 27, 3-[5-(6-chloroquinolin-2-yl)-1-oxo-2,3-dihydro-1H-isoindol-2-yl]piperidine-2,6-dione] | 25 | > 20000 |

| SMILES | DC50 (Helios) [nM] | DC50 (Ikaros) [nM] |
| --- | --- | --- |
| COc1ccc2nc(-c3ccc4c(c3)CN(C3CCC(=O)NC3=O)C4=O)ccc2c1 (centres unmarked) [Example 29, 3-[5-(6-methoxyquinolin-2-yl)-1-oxo-2,3-dihydro-1H-isoindol-2-yl]piperidine-2,6-dione] | 25 | > 20000 |
| O=C1CCC(N2Cc3cc(-c4cnc5cc(Cl)ccc5n4)ccc3C2=O)C(=O)N1 (centres unmarked) [Example 18, 3-[5-(6-chloroquinoxalin-2-yl)-1-oxo-2,3-dihydro-1H-isoindol-2-yl]piperidine-2,6-dione] | 120 | > 20000 |
| O=C1CCC(N2Cc3cc(-c4nccc5c(F)cccc45)ccc3C2=O)C(=O)N1 (centres unmarked) [Example 20, 3-[5-(5-fluoroisoquinolin-1-yl)-1-oxo-2,3-dihydro-1H-isoindol-2-yl]piperidine-2,6-dione] | 20 | 34 |
| CN(C)Nc1cccc(-c2ccc3c(c2)CN(C2CCC(=O)NC2=O)C3=O)n1 (centres unmarked) [Example 138, 3-{5-[6-(2,2-dimethylhydrazin-1-yl)pyridin-2-yl]-1-oxo-2,3-dihydro-1H-isoindol-2-yl}piperidine-2,6-dione] | 920 | ≥ 10000 |
| Nc1cc2ccccc2c(-c2ccc3c(c2)CN([C@H]2CCC(=O)NC2=O)C3=O)n1 [Example 123, (S)-3-(5-(3-aminoisoquinolin-1-yl)-1-oxoisoindolin-2-yl)piperidine-2,6-dione] | 80 | ≥ 20000 |
| Nc1nc(-c2ccc3c(c2)CN([C@@H]2CCC(=O)NC2=O)C3=O)cc2ccccc12 [Example 83, (3R)-3-[5-(1-aminoisoquinolin-3-yl)-1-oxo-2,3-dihydro-1H-isoindol-2-yl]piperidine-2,6-dione] | 30 | ≥ 20000 |
| O=Cc1cc2c(-c3ccc4c(c3)CN(C3CCC(=O)NC3=O)C4=O)nccc2s1 (centres unmarked) [Example 60, 4-[2-(2,6-dioxopiperidin-3-yl)-1-oxo-2,3-dihydro-1H-isoindol-5-yl]thieno[3,2-c]pyridine-2-carbaldehyde] | 15 | 160 |
| O=C1CCC(N2Cc3cc(-c4cc5c(cn4)NCC5)ccc3C2=O)C(=O)N1 (centres unmarked) [Example 113, 3-(5-(2,3-dihydro-1H-pyrrolo[2,3-c]pyridin-5-yl)-1-oxoisoindolin-2-yl)piperidine-2,6-dione] | 50 | ≥ 10000 |
| Nc1cn2nc(-c3ccc4c(c3)CN(C3CCC(=O)NC3=O)C4=O)ccc2n1 (centres unmarked) [Example 65, 3-(5-{2-aminoimidazo[1,2-b]pyridazin-6-yl}-1-oxo-2,3-dihydro-1H-isoindol-2-yl)piperidine-2,6-dione] | > 20000 | > 20000 |
| O=C1CCC(N2Cc3cc(-c4cc5c(cn4)OCCN5)ccc3C2=O)C(=O)N1 (centres unmarked) [Example 87, 3-(5-(2,3-dihydro-1H-pyrido[3,4-b][1,4]oxazin-7-yl)-1-oxoisoindolin-2-yl)piperidine-2,6-dione] | 100 | ≥ 20000 |
| Nc1nc(-c2ccc3c(c2)CN(C2CCC(=O)NC2=O)C3=O)cc2[nH]ccc(=O)c12 (centres unmarked) [Example 47, 3-[5-(5-Amino-4-oxo-1,4-dihydro-1,6-naphthyridin-7-yl)-1-oxo-2,3-dihydro-1H-isoindol-2-yl]piperidine-2,6-dione] | 220 | > 20000 |
| O=C1CCC(N2Cc3cc(-c4nccc5c4ccn5Cc4ccccc4)ccc3C2=O)C(=O)N1 (centres unmarked) [Example 161, 3-(5-(1-benzyl-1H-pyrrolo[3,2-c]pyridin-4-yl)-1-oxoisoindolin-2-yl)piperidine-2,6-dione] | 20 | 90 |
| COc1cc2nc(-c3ccc4c(c3)CN(C3CCC(=O)NC3=O)C4=O)nc(N)c2cc1OC (centres unmarked) [Example 16, 3-[5-(4-amino-6,7-dimethoxyquinazolin-2-yl)-1-oxo-2,3-dihydro-1H-isoindol-2-yl]piperidine-2,6-dione] | 30 | > 20000 |
| O=C1CCC(N2Cc3cc(-c4nccc(-c5ccccc5)n4)ccc3C2=O)C(=O)N1 (centres unmarked) [Example 71, 3-(1-oxo-5-(4-phenylpyrimidin-2-yl)isoindolin-2-yl)piperidine-2,6-dione] | 75 | > 20000 |
| N#Cc1ccnc(-c2ccc3c(c2)CN(C2CCC(=O)NC2=O)C3=O)c1 (centres unmarked) [Example 110, 2-(2-(2,6-dioxopiperidin-3-yl)-1-oxoisoindolin-5-yl) isonicotinonitrile] | 880 | ≥ 10000 |
| O=C1CCC(N2Cc3cc(-c4cc(CO)ccn4)ccc3C2=O)C(=O)N1 (centres unmarked) [Example 108, 3-(5-(4-(hydroxymethyl)pyridin-2-yl)-1-oxoisoindolin-2-yl)piperidine-2,6-dione] | 830 | ≥ 10000 |
| O=C1CCC(N2Cc3cc(-c4cc5c(ccn5Cc5ccccc5)cn4)ccc3C2=O)C(=O)N1 (centres unmarked) [Example 158, 3-(5-{1-Benzyl-1H-pyrrolo[3,2-c]pyridin-6-yl}-1-oxo-2,3-dihydro-1H-isoindol-2-yl) piperidine-2,6-dione] | 20 | ≥ 10000 |
